Data as given in US20110059953A1, “COMPOUNDS FOR USE IN STABILIZING P53 MUTANTS” (priority 2008, published 2011).

Columns and labels:
T-p53C-Y220C [1] = target: T1, T-p53C-Y220C (Homo sapiens, UniProt P04637, M133L/N239Y/N268D/V203A/Y220C); test: Thermal denaturation using capillary DSC; assay type: binding; settings: for ΔTm: increase in Tm on adding 250 μM of the test compound, 20 μM protein
T1 construct: For all other experiments, the DNA coding for residues 94-312 of T-p53C was inserted into a modified pET24a(+) vector; 6xHis tag + B. stearothermophilus dihydrolipoyl acetyltransferase lipoyl domain (aa 1-85) + TEV site (N, cleaved yes); made in house; host or cells: Escherichia coli BL21 (DE3) or C41 (DE3)
Experimental: Differential Scanning calorimetry (DSC) was used to probe the stabilising effect of the ligands on […]. For a reversible two-state system, the melting temperature, Tm, is the transition temperature where the folded and unfolded states are equally populated.
DSC experiments were performed using a Microcal VP-Capillary DSC instrument (Microcal, Amherst, Mass.) with an active cell volume of ˜125 μl. Protein samples were buffer exchanged into 25 mM NaPi, pH 7.2, 150 mM NaCl, 5 mM DTT. This buffer + the respective concentration of ligand/DMSO was used for baseline scans, so that the only difference between sample and reference cell or sample cell in the measurement and both cells in the baseline scan is the presence of the protein. A final concentration of 20 μM T-p53C-Y220C was used. A pressure of 2.5 bars (nitrogen) was applied to the cell. Temperatures from 10 to 85° C. were scanned at a rate of 250° C./h, with a filtering period of 4 seconds and feedback gain/mode set at medium. Data were analysed with ORIGIN software (Microcal).
The following tables show the results of the thermal denaturation studies using capillary DSC, where ΔTm is the increase in Tm on adding 250 μM of the test compound. The Dunnett significance test (P) value given is the calculated probability that the change in Tm is insignificant.

T-p53C-Y220C [2] = target: T1, T-p53C-Y220C; test: Thermal denaturation using fluorescence (Sypro Orange); assay type: binding; settings: further studies on compounds described above; 10 μM protein
Experimental: This was by an adaption of the classical procedure (e.g. ref A6). Thermal unfolding was monitored by the binding of the dye Sypro Orange (5×) using a Rotor-gene 6000 (Corbett Life Science) at 270 K/h in 25 mM NaPi, 150 mM NaCl and 5 mM DTT, pH 7.2 with a protein concentration of 10 μM.
(§1) Where listed, S.E. is the calculated standard error.
as §1

T-p53C-Y220C [3] = target: T1, T-p53C-Y220C; test: 1H/15N-HSQC NMR chemical shift binding (KD NMR)
Experimental: Uniformly ^15N-labelled core domains of T-p53C-Y220C was expressed and purified according to the above described protocol. The low molecular-weight compounds were dissolved in d^6-DMSO to make 10 mM stock solutions. To screen compound mixtures by chemical shift mapping, 10 μl of each of 4 different compounds were mixed together and 25 μl of this mixture was added to 25 μl of D2O and 500 μl of 70 μM T-p53C-Y220C (in 25 mM NaPi, 150 mM NaCl and 5 mM DTT, pH 7.2 ). […] NMR samples were freshly prepared and kept sealed under argon after degassing by repeated cycles of pumping the NMR tube under low pressure (while gently tapping the tube) and returning to atmospheric pressure using a stream of argon gas. This was done to maintain sample stability.
Using Bruker's TopSpin 2.0 software, the number of complex points in t1 was doubled by forward complex linear prediction and shifted squared sine bell window functions were applied to both dimensions prior to zero filling and Fourier transformation. A digital resolution of 2.0 Hz/point in the ^1H frequency dimension and 4.7 Hz/point in the ^15N frequency dimension was used. […] An in-house script was used to analyse chemical shift differences and map these onto PDB protein structures.
For certain compounds an array of different concentrations were used to derive KD values (KD NMR) by fitting a saturation binding equation (Δδ=c+a*[L]/(KD+[L])) to the concentration-dependent chemical shift changes of the relevant shifting peaks.

T-p53C-Y220C [4] = target: T1, T-p53C-Y220C; test: Equilibrium sedimentation analytical ultracentrifugation (AUC) binding
Text: Analytical centrifugation studies the distribution of molecules under gravity force. In equilibrium sedimentation experiment the solute concentrates at the bottom of the cell and forms a concentration gradient. The steepness of this gradient depends on the molecular weight of the solute, the heavier the molecule the steeper the gradient. Small molecules have a molecular weight around 500 Da, and p53 core domain is large protein molecule of 24.5 kDa. Under the experimental conditions chosen, small molecules form a very shallow, practically negligible gradient, while p53 presents a very well defined sedimentation profile. […] By monitoring the distribution of the small molecule via absorbance at wavelengths above 300 nm (the ligands must absorb light in this spectral range for the method to work) so that signal is not affected by the absorbance of the protein (e.g., 310, 340 and 380 nm), it is possible to determine if the small molecule binds to the protein, and in many cases measure the dissociation constant. […]
Equilibrium sedimentation experiments were performed on a Beckman XL-I ultracentrifuge using Ti-50 rotor and 6-sector cells. at speeds of 30,000 and 40,000 rpm at 10° C. Up to 21 samples were analysed simultaneously. […] The samples contained ligand at concentration of 15 μM-40 μM, with absorbance of 0.3-0.5 at one of the selected wavelengths and 100 μM T-p53-Y220C.

T-p53C-Y220C [5] = target: T1, T-p53C-Y220C; test: Melting temperature of T-p53C-Y220C, method not stated; assay type: binding
[6] = KD (@ 20° C.) μM, further NMR studies, some revised values

Row | Kd (T-p53C-Y220C [1]; at 316-318 K, read-out: approximate KD from DSC stabilization fit) [µM] | ΔTm (T-p53C-Y220C [1]) [°C] | ΔTm (° C.) (T-p53C-Y220C [2]) [°C] | Kd (T-p53C-Y220C [3]; [6]) [µM] | Kd (T-p53C-Y220C [3]; KD (@ 20° C.), 1H/15N-HSQC) [µM] | Kd (T-p53C-Y220C [4]) [µM] | effect on melting temperature (T-p53C-Y220C [5]) | Structure (SMILES)
1 | ~140 | 0.75 | 0.76 | 114 | 167 | 170 | – | CCn1c2ccccc2c2cc(CNC)ccc21 [PK083]
2 | – | 0.79 | 0.793 | 97 | – | – | – | CCC(CO)NCc1ccc2c(c1)c1ccccc1n2CC (stereo not shown) [PK209]
3 | – | 0.58 | 0.58 | 120 | – | – | – | CCn1c2ccccc2c2cc(CNCCO)ccc21 [PK211]
4 | – | – | – | – | – | – | raise its melting temperature | NC(=O)c1c[nH]c2ccccc12 [1H-indole-3-carboxamide]
